The supplement of paper PMC8617591

Columns and labels:
[1] = system: Mycobacterium tuberculosis Erdman (autoluminescent); assay: GRinf, maximum normalised growth rate inhibition (three-drug combination) (unitless (-1 to 1)); higher = less effect (negative = killing)
Protocol: (§1)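 DiaMOND equipotent three-drug combination dose responses (10 doses, 1.5- or 2-fold spacing, centred on IC90) against autoluminescent M. tuberculosis Erdman in 8 in vitro models. Read-out is OD600, or luminescence for the intracellular and dormancy models, normalised to untreated wells. Hill-fit Einf, AUC25 and GRinf are potency metrics; FIC50 and FIC90 are total Loewe fractional inhibitory concentrations as log2 (negative = synergy).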

[2] = system: Mycobacterium tuberculosis Erdman (autoluminescent); assay: total FIC50 (Loewe) at 50% inhibition, three-drug combination (log2); higher = more antagonistic
Protocol: as §1

[3] = system: Mycobacterium tuberculosis Erdman (autoluminescent); assay: AUC25, normalised area under dose response up to IC25 (three-drug combination) (fraction (0-1)); higher = more potent at low dose
Protocol: as §1

[4] = system: Mycobacterium tuberculosis Erdman (autoluminescent); assay: total FIC90 (Loewe) at 90% inhibition, three-drug combination (log2); higher = more antagonistic
Protocol: as §1

[5] = system: Mycobacterium tuberculosis Erdman (autoluminescent); assay: Einf, fitted maximum growth inhibition of three-drug combination (fraction); higher = stronger maximal inhibition
Protocol: as §1

COc1nc2ccc(Br)cc2cc1[C@@H](c1ccccc1)[C@@](O)(CCN(C)C)c1cccc2ccccc12 [bedaquiline] + COc1c(N2C[C@@H]3CCCN[C@@H]3C2)c(F)cc2c(=O)c(C(=O)O)cn(C3CC3)c12 [moxifloxacin] + CO[C@H]1/C=C/O[C@@]2(C)Oc3c(C)c(O)c4c(O)c(c(/C=N/N5CCN(C)CC5)c(O)c4c3C2=O)NC(=O)/C(C)=C\C=C\[C@H](C)[C@H](O)[C@@H](C)[C@@H](O)[C@@H](C)[C@H](OC(C)=O)[C@@H]1C [rifampicin]
Conditions	AUC25, [3]	Einf, [5]	GRinf, [1]	total FIC50, [2]	total FIC90, [4]
in vitro model: acidic pH 5.7, time point: constant (~7 days, model-specific)	0.0637	0.833	-0.0329	0.708	–
in vitro model: acidic pH 5.7, time point: terminal (~4-5 doublings, model-specific)	0.0621	0.98	-0.13	1.07	0.594
in vitro model: intracellular J774, time point: constant = terminal	–	0.938	-0.427	–	0.931

Conditions	AUC25, [3]	Einf, [5]	GRinf, [1]	total FIC50, [2]	total FIC90, [4]
in vitro model: butyrate, time point: constant (~7 days, model-specific)	0.12	0.964	-0.414	0.594	0.579
in vitro model: butyrate, time point: terminal (~4-5 doublings, model-specific)	0.105	0.99	-0.247	0.573	1.1
in vitro model: cholesterol 0.05 mM, time point: constant (~7 days, model-specific)	0.0826	0.745	-0.166	0.0975	–
in vitro model: cholesterol 0.05 mM, time point: terminal (~4-5 doublings, model-specific)	0.074	0.866	-0.045	1.13	-0.616
in vitro model: cholesterol-high 0.2 mM, time point: constant (~7 days, model-specific)	0.057	0.957	-0.452	0.677	0.0311
in vitro model: cholesterol-high 0.2 mM, time point: terminal (~4-5 doublings, model-specific)	0.0547	1	-0.61	0.955	0.594
in vitro model: dormancy (butyrate + nitrate, low O2), time point: constant (~7 days, model-specific)	0.0876	0.925	0.215	0.688	0.901
in vitro model: dormancy (butyrate + nitrate, low O2), time point: terminal (~4-5 doublings, model-specific)	0.0619	0.982	-0.201	0.97	1.03
in vitro model: standard 7H9 glycerol, time point: constant = terminal	0.0774	0.96	-0.141	0.732	–
in vitro model: valerate, time point: constant (~7 days, model-specific)	0.046	0.884	-0.0825	1.19	–
in vitro model: valerate, time point: terminal (~4-5 doublings, model-specific)	0.0316	0.953	-0.044	1.1	0.726

CC[C@@H](CO)NCCN[C@@H](CC)CO [ethambutol] + CC(=O)NC[C@H]1CN(c2ccc(N3CCOCC3)c(F)c2)C(=O)O1 [linezolid] + CO[C@H]1/C=C/O[C@@]2(C)Oc3c(C)c(O)c4c(O)c(c(/C=N/N5CCN(C)CC5)c(O)c4c3C2=O)NC(=O)/C(C)=C\C=C\[C@H](C)[C@H](O)[C@@H](C)[C@@H](O)[C@@H](C)[C@H](OC(C)=O)[C@@H]1C [rifampicin]
Conditions	AUC25, [3]	Einf, [5]	GRinf, [1]	total FIC50, [2]	total FIC90, [4]
in vitro model: acidic pH 5.7, time point: constant (~7 days, model-specific)	0.107	0.895	-0.171	0.267	–
in vitro model: acidic pH 5.7, time point: terminal (~4-5 doublings, model-specific)	0.0468	0.972	-0.121	0.894	0.219
in vitro model: intracellular J774, time point: constant = terminal	–	0.96	-0.326	–	-2.16

Conditions	AUC25, [3]	Einf, [5]	GRinf, [1]	total FIC50, [2]	total FIC90, [4]
in vitro model: butyrate, time point: constant (~7 days, model-specific)	0.0696	0.907	0.0409	0.215	–
in vitro model: butyrate, time point: terminal (~4-5 doublings, model-specific)	0.0538	0.952	0.0366	0.088	-0.801
in vitro model: cholesterol 0.05 mM, time point: constant (~7 days, model-specific)	0.163	0.704	-0.271	-0.838	–
in vitro model: cholesterol 0.05 mM, time point: terminal (~4-5 doublings, model-specific)	0.142	0.945	-0.414	-1.2	–
in vitro model: cholesterol-high 0.2 mM, time point: constant (~7 days, model-specific)	0.0878	0.971	-0.549	0.326	–
in vitro model: cholesterol-high 0.2 mM, time point: terminal (~4-5 doublings, model-specific)	0.0943	1	-0.743	0.388	0.577
in vitro model: dormancy (butyrate + nitrate, low O2), time point: constant (~7 days, model-specific)	0.086	0.805	0.521	0.204	–
in vitro model: dormancy (butyrate + nitrate, low O2), time point: terminal (~4-5 doublings, model-specific)	0.0341	0.979	-0.0529	0.514	-0.712
in vitro model: standard 7H9 glycerol, time point: constant = terminal	0.0613	0.9	0.107	0.293	–
in vitro model: valerate, time point: constant (~7 days, model-specific)	0.0592	0.858	0.0331	0.437	–
in vitro model: valerate, time point: terminal (~4-5 doublings, model-specific)	0.0352	0.921	0.0654	0.622	-0.279

CC(=O)NC[C@H]1CN(c2ccc(N3CCOCC3)c(F)c2)C(=O)O1 [linezolid] + NC(=O)c1cnccn1 [pyrazinamide] + CO[C@H]1/C=C/O[C@@]2(C)Oc3c(C)c(O)c4c(O)c(c(/C=N/N5CCN(C)CC5)c(O)c4c3C2=O)NC(=O)/C(C)=C\C=C\[C@H](C)[C@H](O)[C@@H](C)[C@@H](O)[C@@H](C)[C@H](OC(C)=O)[C@@H]1C [rifampicin]
Conditions	AUC25, [3]	Einf, [5]	GRinf, [1]	total FIC50, [2]	total FIC90, [4]
in vitro model: acidic pH 5.7, time point: constant (~7 days, model-specific)	0.0897	0.883	-0.255	0.175	–
in vitro model: acidic pH 5.7, time point: terminal (~4-5 doublings, model-specific)	0.0731	0.986	-0.249	0.189	–
in vitro model: intracellular J774, time point: constant = terminal	–	0.953	-0.411	–	-0.0717

Conditions	AUC25, [3]	Einf, [5]	GRinf, [1]	total FIC50, [2]	total FIC90, [4]
in vitro model: butyrate, time point: constant (~7 days, model-specific)	0.0912	0.889	0.0887	-0.0235	0.328
in vitro model: butyrate, time point: terminal (~4-5 doublings, model-specific)	0.075	0.94	0.0909	-0.114	-0.413
in vitro model: cholesterol 0.05 mM, time point: constant (~7 days, model-specific)	0.141	0.702	-0.117	–	–
in vitro model: cholesterol 0.05 mM, time point: terminal (~4-5 doublings, model-specific)	0.127	0.929	-0.289	0.713	–
in vitro model: cholesterol-high 0.2 mM, time point: constant (~7 days, model-specific)	0.116	0.926	-0.72	0.321	–
in vitro model: cholesterol-high 0.2 mM, time point: terminal (~4-5 doublings, model-specific)	0.104	0.995	-0.826	0.598	0.554
in vitro model: dormancy (butyrate + nitrate, low O2), time point: constant (~7 days, model-specific)	0.0758	0.893	0.203	0.486	0.378
in vitro model: dormancy (butyrate + nitrate, low O2), time point: terminal (~4-5 doublings, model-specific)	0.0314	0.972	-0.277	0.208	-0.126
in vitro model: standard 7H9 glycerol, time point: constant = terminal	0.0779	0.908	0.119	-0.168	–
in vitro model: valerate, time point: constant (~7 days, model-specific)	0.0571	0.853	0.1	0.122	–
in vitro model: valerate, time point: terminal (~4-5 doublings, model-specific)	0.0305	0.925	0.0656	0.211	-0.35

CC[C@@H](CO)NCCN[C@@H](CC)CO [ethambutol] + NC(=O)c1cnccn1 [pyrazinamide] + CO[C@H]1/C=C/O[C@@]2(C)Oc3c(C)c(O)c4c(O)c(c(/C=N/N5CCN(C)CC5)c(O)c4c3C2=O)NC(=O)/C(C)=C\C=C\[C@H](C)[C@H](O)[C@@H](C)[C@@H](O)[C@@H](C)[C@H](OC(C)=O)[C@@H]1C [rifampicin]
Conditions	AUC25, [3]	Einf, [5]	GRinf, [1]	total FIC50, [2]	total FIC90, [4]
in vitro model: acidic pH 5.7, time point: constant (~7 days, model-specific)	0.0703	0.91	-0.349	-0.177	–
in vitro model: acidic pH 5.7, time point: terminal (~4-5 doublings, model-specific)	0.0348	0.982	-0.218	0.428	-0.924
in vitro model: intracellular J774, time point: constant = terminal	–	0.966	-0.396	–	-2.06

Conditions	AUC25, [3]	Einf, [5]	GRinf, [1]	total FIC50, [2]	total FIC90, [4]
in vitro model: butyrate, time point: constant (~7 days, model-specific)	0.0895	0.919	0.0103	0.151	–
in vitro model: butyrate, time point: terminal (~4-5 doublings, model-specific)	0.0793	0.964	0.024	0.114	-0.38
in vitro model: cholesterol 0.05 mM, time point: constant (~7 days, model-specific)	0.089	0.596	0.0152	–	–
in vitro model: cholesterol 0.05 mM, time point: terminal (~4-5 doublings, model-specific)	0.105	0.954	-0.297	1.25	–
in vitro model: cholesterol-high 0.2 mM, time point: constant (~7 days, model-specific)	0.0452	0.964	-0.34	1.12	–
in vitro model: cholesterol-high 0.2 mM, time point: terminal (~4-5 doublings, model-specific)	0.043	0.995	-0.69	1.15	0.828
in vitro model: dormancy (butyrate + nitrate, low O2), time point: constant (~7 days, model-specific)	0.134	0.906	0.291	-1.12	–
in vitro model: dormancy (butyrate + nitrate, low O2), time point: terminal (~4-5 doublings, model-specific)	0.0829	0.989	-0.155	-0.532	0.414
in vitro model: standard 7H9 glycerol, time point: constant = terminal	0.0436	0.897	0.134	0.0958	–
in vitro model: valerate, time point: constant (~7 days, model-specific)	0.0382	0.854	0.143	0.23	–
in vitro model: valerate, time point: terminal (~4-5 doublings, model-specific)	0.0278	0.92	0.0943	0.205	-0.873
